Experimental data as given in EP1561465A2, “Methods of use of fluoroquinolone compounds against bacteria” (LG Life Sciences, Ltd., priority 1999, dated 2001).
Values after ≈ are worked out from the molar mass of the structure shown. Like-named read-outs stand apart in the source and are kept apart here.

Assays:
Type in all cases: cell-based
[1] = system: Yersinia enterocolitica; assay: MIC by agar dilution (NCCLS M7-A4), 288 enteropathogenic isolates, eight quinolones; settings: Yersinia enterocolitica (n = 22)
[2] = system: Proteus mirabilis; assay: MIC by NCCLS broth microdilution, 1100 Japanese clinical isolates 1997-1998
[3] = system: Serratia marcescens; assay: as above
[4] = system: Streptococcus pneumoniae; assay: MIC by two-fold serial agar dilution, Sensitivity Disk agar-N (Kitasato isolates); settings: for MIC90 / MIC / MIC50: Streptococcus pneumoniae; for MIC90: read-out: MIC90; for MIC: read-out: MIC Range; for MIC50: read-out: MIC50
[5] = system: Streptococcus pneumoniae; assay: MIC by NCCLS reference broth microdilution, 450 respiratory tract pathogens; settings: for MIC / MIC50 / MIC90: Streptococcus pneumoniae
[6] = system: Mycobacterium tuberculosis (MTB); assay: MIC by proportions method (NCCLS M24-T, 1995), 82 MTB strains; settings: compared with the other quinolones
[7] = system: Acinetobacter spp.; assay: MIC by agar dilution (NCCLS), 322 nosocomial Gram negative isolates, Athens 1998; settings: n = 38 strains
[8] = system: Staphylococcus aureus; assay: MIC by NCCLS broth microdilution, 1100 Japanese clinical isolates 1997-1998; settings: for MIC50 / MIC90 / MIC: Staphylococcus aureus; for MIC: Staphylococcus aureus quinolone resistant
[9] = Streptococcus pneumoniae (n = 100)
[10] = erythromycin resistant M phenotype (n = 16)
[11] = penicillin intermediate (n = 16)
[12] = penicillin susceptible (n = 20)
[13] = Staphylococcus aureus oxacillin resistant (n=57)
[14] = Staphylococcus aureus oxacillin susceptible (n=41)

SMILES: CO/N=C1\CN(c2nc3c(cc2F)c(=O)c(C(=O)O)cn3C2CC2)CC1CN (racemic) [Gemifloxacin, (R,S)-7-(3-aminomethyl-4-methoxyiminopyrrolidin-1-yl)-1-cyclopropyl-6-fluoro-4-oxo-1,4-dihydro-1,8-naphthyridine-3-carboxylic acid]
- % Susceptible [1]: 100%
- MIC50 [1]: 0.03 µg/mL (≈ 0.077 µM)
- MIC90 [1]: 0.03 µg/mL (≈ 0.077 µM)
- MIC Range [1]: ≤0.015 to 0.12 µg/mL
- MIC50 ([2]; Proteus mirabilis): 0.125 µg/mL (≈ 0.321 µM)
- MIC Range ([2]; Proteus mirabilis (n=30)): 0.063 to 16 µg/mL
- MIC90 ([2]; Proteus mirabilis (n=30), read-out: MIC90): 0.25 µg/mL (≈ 0.642 µM)
- MIC50 ([3]; Serratia marcescens): 0.125 µg/mL (≈ 0.321 µM)
- MIC90 ([3]; Serratia marcescens (n=30)): 0.5 µg/mL (≈ 1.28 µM)
- MIC Range ([3]; Serratia marcescens (n=30)): 0.063 to 128 µg/mL
- more potent than sparfloxacin ([4]; S. pneumoniae, by MIC90): 8 fold
- more potent than trovafloxacin ([4]; S. pneumoniae, by MIC90): 4 fold
- MIC90 ([4]; 18 h, Ciprofloxacin-resistant (21), ciprofloxacin MIC ≥8 µg/ml): 0.5 µg/mL (≈ 1.28 µM)
- MIC ([4]; 18 h, Ciprofloxacin-resistant (21)): 0.063 to 0.5 µg/mL (≈ 0.162 to 1.28 µM)
- MIC ([4]; 18 h, Ciprofloxacin-susceptible (94)): 0.008 to 0.063 µg/mL (≈ 0.0205 to 0.162 µM)
- MIC ([4]; 18 h, Erythromycin-resistant (37)): 0.016 to 0.5 µg/mL (≈ 0.0411 to 1.28 µM)
- MIC ([4]; 18 h, Minocycline-resistant (37)): 0.016 to 0.5 µg/mL (≈ 0.0411 to 1.28 µM)
- MIC ([4]; 18 h, Penicillin-resistant (19)): 0.016 to 0.063 µg/mL (≈ 0.0411 to 0.162 µM)
- MIC50 ([4]; Ciprofloxacin-resistant (21)): 0.25 µg/mL (≈ 0.642 µM)
- MIC50 ([4]; Ciprofloxacin-susceptible (94)): 0.031 µg/mL (≈ 0.0796 µM)
- MIC90 ([4]; Ciprofloxacin-susceptible (94)): 0.031 µg/mL (≈ 0.0796 µM)
- MIC50 ([4]; Erythromycin-resistant (37)): 0.031 µg/mL (≈ 0.0796 µM)
- MIC90 ([4]; Erythromycin-resistant (37)): 0.063 µg/mL (≈ 0.162 µM)
- MIC50 ([4]; Minocycline-resistant (37)): 0.031 µg/mL (≈ 0.0796 µM)
- MIC90 ([4]; Minocycline-resistant (37)): 0.063 µg/mL (≈ 0.162 µM)
- MIC50 ([4]; Penicillin-resistant (19)): 0.016 µg/mL (≈ 0.0411 µM)
- MIC90 ([4]; Penicillin-resistant (19)): 0.063 µg/mL (≈ 0.162 µM)
- times more potent than all comparator agents ([5]; S. pneumoniae): 4-64 times
- MIC [5, 9]: 0.0075 to 0.03 µg/mL (≈ 0.0193 to 0.077 µM)
- MIC50 [5, 9]: 0.015 µg/mL (≈ 0.0385 µM)
- MIC90 [5, 9]: 0.03 µg/mL (≈ 0.077 µM)
- MIC [5, 10]: 0.015 to 0.05 µg/mL (≈ 0.0385 to 0.128 µM)
- MIC50 [5, 10]: 0.015 µg/mL (≈ 0.0385 µM)
- MIC90 [5, 10]: 0.03 µg/mL (≈ 0.077 µM)
- MIC ([5]; erythromycin resistant MLSB phenotype (n = 16)): 0.0075 to 0.03 µg/mL (≈ 0.0193 to 0.077 µM)
- MIC ([5]; multi-drug resistant (n = 16)): 0.0075 to 0.03 µg/mL (≈ 0.0193 to 0.077 µM)
- MIC50 ([5]; multi-drug resistant (n = 16)): 0.015 µg/mL (≈ 0.0385 µM)
- MIC90 ([5]; multi-drug resistant (n = 16)): 0.03 µg/mL (≈ 0.077 µM)
- MIC [5, 11]: 0.0075 to 0.03 µg/mL (≈ 0.0193 to 0.077 µM)
- MIC50 [5, 11]: 0.015 µg/mL (≈ 0.0385 µM)
- MIC90 [5, 11]: 0.015 µg/mL (≈ 0.0385 µM)
- MIC ([5]; penicillin resistant (n = 18)): 0.0075 to 0.06 µg/mL (≈ 0.0193 to 0.154 µM)
- MIC50 ([5]; penicillin resistant (n = 18)): ≤ 0.0075 µg/mL
- MIC90 ([5]; penicillin resistant (n = 18)): 0.06 µg/mL (≈ 0.154 µM)
- MIC [5, 12]: 0.0075 to 0.03 µg/mL (≈ 0.0193 to 0.077 µM)
- MIC50 [5, 12]: 0.015 µg/mL (≈ 0.0385 µM)
- MIC90 [5, 12]: 0.03 µg/mL (≈ 0.077 µM)
- in vitro activity against MTB [6]: lower in vitro activity
- MIC50 ([7]; Acinetobacter): 2 µg/mL (≈ 5.14 µM)
- MIC90 ([7]; Acinetobacter): 32 µg/mL (≈ 82.2 µM)
- MIC Range [7]: 0.06 to 32 µg/mL
- MIC Range [8, 13]: ≤0.008 to 64 µg/mL
- MIC Range [8, 14]: ≤0.008 to 1 µg/mL
- MIC50 [8, 13]: 1 µg/mL (≈ 2.57 µM)
- MIC90 [8, 13]: 32 µg/mL (≈ 82.2 µM)
- MIC50 [8, 14]: 0.063 µg/mL (≈ 0.162 µM)
- MIC90 [8, 14]: 0.063 µg/mL (≈ 0.162 µM)
- MIC ([8]; strain TMS1* (spontaneous mutant resistant to ciprofloxacin)): 0.032 µg/mL (≈ 0.0822 µM)
- MIC ([8]; strain TMS2* (spontaneous mutant resistant to ciprofloxacin)): 1 µg/mL (≈ 2.57 µM)
- MIC ([8]; strain TMS3, read-out: MIC): 32 µg/mL (≈ 82.2 µM)
- MIC ([8]; strain TMS4, read-out: MIC): 4 µg/mL (≈ 10.3 µM)
- MIC ([8]; strain TMS5, read-out: MIC): 2 µg/mL (≈ 5.14 µM)
- MIC ([8]; strain TMS6, read-out: MIC): 0.25 µg/mL (≈ 0.642 µM)
